Measurements taken from the NIST ThermoML archive (doi:10.1016/j.jct.2012.05.006).
Numbers after ± are expanded uncertainties.

Conditions: 101.33 kPa, Liquid, Vibrating tube method

CCCCCCCC[n+]1ccn(C)c1.N#C[S-] [1-methyl-3-octyl-1H-imidazolium thiocyanate]
Conditions | mass density [kg/m3]
288.15 K | 1014 ± 0.2
293.15 K | 1011.1 ± 0.2
298.15 K | 1008.3 ± 0.2
303.15 K | 1005.4 ± 0.2
308.15 K | 1002.6 ± 0.2
313.15 K | 999.7 ± 0.2
318.15 K | 996.7 ± 0.2
323.15 K | 994.1 ± 0.2
328.15 K | 991.3 ± 0.2
333.15 K | 988.4 ± 0.2
338.15 K | 985.6 ± 0.2
343.15 K | 982.9 ± 0.2
